{"source": "patent US11931362B2", "about": "(CIPLA LIMITED, priority 2019, dated 2024)", "system": "Escherichia coli, Staphylococcus aureus, Pseudomonas aeruginosa, Candida albicans, and Aspergillus niger", "assay": "Preservative efficacy test, overall outcome", "type": "cell-based", "conditions": "bacteria and fungi", "description": "Preservative effectiveness tests are compendial-guided assays that determine efficacy for preservative systems in pharmaceutical preparations. In such assays, test formulations are challenged with standardized suspensions of indicator aerobic bacteria and molds and microorganism survival is monitored over a 28-day period. The efficacy of the preservative against various microorganisms was measured using a USP/EP preservative efficacy test. These tests were conducted on Memmert equipment. In the procedure, formulations were tested against the following microorganisms: Escherichia coli, Staphylococcus aureus, Pseudomonas aeruginosa, Candida albicans, and Aspergillus niger. The bacterial strains and fungi were inoculated at a total concentration of […]. Samples were incubated for 7 days at room temperature (25° C.), and the total bacterial and fungal counts were measured using a colony counter. The log reduction (LR) values for the bacterial and fungal counts were calculated as log (initial count/final count)."}
{"compound": "OCc1ccccc1", "note": "[benzyl alcohol]", "values": [{"measurement": "preservative efficacy test outcome", "value": "effective"}]}
